Where a SMILES comes first, the peptide text is derived from it. Bridges are numbered along the chain shown (N, C = ends). Where no end group is shown, it is not given here.
Legend:
control (normal) cells = test: Lactate dehydrogenase (LDH) release cytotoxicity assay, control group; type: cell-based
Text: (§1) The lactate dehydrogenase (LDH) release assay was used to measure cytotoxicity. Lactate dehydrogenase (LDH) is a stable cytoplasmic enzyme present in most cells. During damage to or rupture of cell cytoplasmic membranes, LDH is released from cells and into the surrounding cell culture supernatant. Quantitation of LDH in cell culture supernatant was used to measure cellular toxicity levels.
(§2) Both MCF-7 and control (normal) cells were detached from 75 cm^2 flasks with trypsin-EDTA and centrifuged. Cells were resuspended in cell culture media and diluted to a concentration of 50 cells/ µl 100 µl of cell suspension was transferred to each well of a 96-well plate. Three wells of cells were used for each concentration of cyclic dodecapeptide. The asay was performed in triplicates. […] The media of the experiment groups was replaced with media containing 50, 100, or 200 µg/ml of cyclic dodecapeptide. After the cells were incubated with cyclic dodecapeptide for 24 hours, the activity of released lactate dehydrogenase was detected following manufacture prototol. 5 µl of lysis solution (2% Triton-X-100) was added to each well. The plate was incubated at 37 °C for 15 minutes. 100 µ ? of freshly prepared reaction mixture containing catalyst (Diaphoresis NAD^+mixture) and dye solution (iodotetrazolium chloride (INT) and sodium lactate) was added to each well. After incubation in dark at room temperature for 30 minutes, the reaction was stopped by adding 50 µl of stopping solution (IN HCl) to each well. Plates were shaken in an orbital shaker for 10 seconds. Spectrophotometric absorbance was measured at 490 nm test wavelength and 690 nm reference wavelength. The results were determined as % cytotoxicity. The average absorbance value of the negative control group (no cyclic dodecapeptide added) was subtracted from each of the experiment groups. A positive control group for maximum LDH release was used as 100% cytotoxicity. The control and experiment groups were compared relative to the positive control group, and their cytotoxicities were measured by using the formula below: % Cytotoxicity = ([Experiment−NegativeControl])/([PositiveControl−NegativeControl])∗100 [formula]

MCF-7 cells = test: Lactate dehydrogenase (LDH) release cytotoxicity assay; type: cell-based; conditions: 24 hours, FIG. 4
Text: as §1
as §2, with “A positive control group for maximum LDH release was used as 100% cytotoxicity.” left out

MDA-MB 231 cells = test: as above; type: cell-based; conditions: 24 hours, FIG. 5
emryonic neurons of rats = conditions: cited from earlier work
human glioblastoma cells = conditions: cited from earlier work

| Molecule | release of lactate dehydrogenase, % cytotoxicity, control group (control (normal) cells; 50 µg/ml, FIG. 4 (control group to MCF-7)) | release of lactate dehydrogenase, % cytotoxicity, control group (control (normal) cells; 50 µg/ml, FIG. 5 (control group to MDA-MB 231)) | release of lactate dehydrogenase, % cytotoxicity, control group (control (normal) cells; 100 µg/ml, FIG. 4 (control group to MCF-7)) | release of lactate dehydrogenase, % cytotoxicity, control group (control (normal) cells; 100 µg/ml, FIG. 5 (control group to MDA-MB 231)) | release of lactate dehydrogenase, % cytotoxicity, control group (control (normal) cells; 200 µg/ml, FIG. 4 (control group to MCF-7)) | release of lactate dehydrogenase, % cytotoxicity, control group (control (normal) cells; 200 µg/ml, FIG. 5 (control group to MDA-MB 231)) | release of lactate dehydrogenase, % cytotoxicity, MCF-7 group (MCF-7 cells; 50 µg/ml) | release of lactate dehydrogenase, % cytotoxicity, MCF-7 group (MCF-7 cells; 100 µg/ml) | release of lactate dehydrogenase, % cytotoxicity, MCF-7 group (MCF-7 cells; 200 µg/ml) | release of lactate dehydrogenase, % cytotoxicity, MDA-MB 231 group (MDA-MB 231 cells; 50 µg/ml) | release of lactate dehydrogenase, % cytotoxicity, MDA-MB 231 group (MDA-MB 231 cells; 100 µg/ml) | release of lactate dehydrogenase, % cytotoxicity, MDA-MB 231 group (MDA-MB 231 cells; 200 µg/ml) | cytotoxicity (emryonic neurons of rats) | cytotoxicity (human glioblastoma cells) |
| --- | --- | --- | --- | --- | --- | --- | --- | --- | --- | --- | --- | --- | --- | --- |
| CC[C@H](C)[C@@H]1NC(=O)[C@H](CCCNC(=N)N)NC(=O)[C@@H](NC(=O)[C@H](CC(C)C)NC(=O)[C@@H](N)CCCNC(=N)N)CSSC[C@@H](C(=O)N[C@@H](CCCNC(=N)N)C(=O)O)NC(=O)[C@H](C(C)C)NC(=O)[C@H](CCCNC(=N)N)NC(=O)[C@H]([C@@H](C)CC)NC(=O)[C@H](C(C)C)NC(=O)[C@H](C(C)C)NC1=O [cyclic dodecapeptide, RLCRIVVIRVCR] (H-RLCRIVVIRVCR-OH; disulfide 3-11) | 12.8±1.9% | 3.9±0.9% | 13.36±1.5% | 4.73±1.7% | 12.07±1.4% | 4.8±1.3% | 20.11±8.3% | 76.22±4.1% | 61.55+4% | 19.1±1.9% | 17.1±2.2% | 33.93±9% |  |  |
| bactenecin (RLCRIVVIRVCR; disulfide 3-11; UniProt P22226 144-155, looked up) |  |  |  |  |  |  |  |  |  |  |  |  | strongly cytotoxic | strongly cytotoxic |

Reference: patent publication EP3233102B1, “USE OF AN ANTIMICROBIAL PEPTIDE TO INDUCE CELL DEATH IN BREAST CANCER” (Bolkent, Sehnaz, priority 2014, dated 2024)
